Source: ChEMBL document CHEMBL1201862, “PubChem BioAssay data set” (2004)
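Cultured in 96-well plates, cells were exposed to test compound for 48 hours across five concentrations. Here, GI50 denotes the concentration required for 50% inhibition of growth.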 Calls of active or inactive are those of the source. Cut-off read from the data, not from the text of the source: active = GI50 up to about 1.1 µM and inactive = higher.

Key:
Experiment in all cases: NCI-60 cell line screen, 48 h
786-0 = tested on: 786-0
A498 = tested on: A498
A549 = tested on: A549
ACHN = tested on: ACHN
BT-549 = tested on: BT-549
CAKI-1 = tested on: CAKI-1
CCRF-CEM = tested on: CCRF-CEM
COLO 205 = tested on: COLO 205
DU-145 = tested on: DU-145
HCC 2998 = tested on: HCC 2998
HCT-116 = tested on: HCT-116
HCT-15 = tested on: HCT-15
HL-60 = tested on: HL-60
HOP-62 = tested on: HOP-62
HT-29 = tested on: HT-29
Hs-578T = tested on: Hs-578T
IGROV-1 = tested on: IGROV-1
K562 = tested on: K562
KM12 = tested on: KM12
LOX IMVI = tested on: LOX IMVI
M14 = tested on: M14
MCF7 = tested on: MCF7
MDA-MB-231 = tested on: MDA-MB-231
MDA-MB-435 = tested on: MDA-MB-435
MDA-N = tested on: MDA-N
MOLT-4 = tested on: MOLT-4
Malme-3M = tested on: Malme-3M
NCI-H226 = tested on: NCI-H226
NCI-H23 = tested on: NCI-H23
NCI-H460 = tested on: NCI-H460
NCI-H522 = tested on: NCI-H522
NCI/ADR-RES = tested on: NCI/ADR-RES
OVCAR-3 = tested on: OVCAR-3
OVCAR-5 = tested on: OVCAR-5
OVCAR-8 = tested on: OVCAR-8
PC-3 = tested on: PC-3
RPMI-8226 = tested on: RPMI-8226
RXF 393 = tested on: RXF 393
SF-268 = tested on: SF-268
SF-295 = tested on: SF-295
SF-539 = tested on: SF-539
SK-MEL-28 = tested on: SK-MEL-28
SK-MEL-2 = tested on: SK-MEL-2
SK-MEL-5 = tested on: SK-MEL-5
SK-OV-3 = tested on: SK-OV-3
SN12C = tested on: SN12C
SNB-19 = tested on: SNB-19
SNB-75 = tested on: SNB-75
SR = tested on: SR
SW-620 = tested on: SW-620
T47D = tested on: T47D
TK-10 = tested on: TK-10
U-251 = tested on: U-251
UACC-257 = tested on: UACC-257
UACC-62 = tested on: UACC-62
UO-31 = tested on: UO-31
EKVX = tested on: EKVX
HOP-92 = tested on: HOP-92
OVCAR-4 = tested on: OVCAR-4

SMILES: O=C(N/N=C1\CCc2ccccc21)N/N=C1\CCc2ccccc21
- GI50 (786-0): > 100 µM (inactive)
- GI50 (A498): > 100 µM (inactive)
- GI50 (A549): > 100 µM (inactive)
- GI50 (ACHN): > 100 µM (inactive)
- GI50 (BT-549): > 100 µM (inactive)
- GI50 (CAKI-1): > 100 µM (inactive)
- GI50 (CCRF-CEM): > 100 µM (inactive)
- GI50 (COLO 205): > 100 µM (inactive)
- GI50 (DU-145): > 100 µM (inactive)
- GI50 (HCC 2998): > 100 µM (inactive)
- GI50 (HCT-116): > 100 µM (inactive)
- GI50 (HCT-15): > 100 µM
- GI50 (HL-60): > 100 µM (inactive)
- GI50 (HOP-62): > 100 µM (inactive)
- GI50 (HT-29): > 100 µM (inactive)
- GI50 (Hs-578T): > 100 µM (inactive)
- GI50 (IGROV-1): > 100 µM (inactive)
- GI50 (K562): > 100 µM (inactive)
- GI50 (KM12): > 100 µM (inactive)
- GI50 (LOX IMVI): > 100 µM (inactive)
- GI50 (M14): 13.5 µM (inactive)
- GI50 (MCF7): > 100 µM (inactive)
- GI50 (MDA-MB-231): 12.9 µM (inactive)
- GI50 (MDA-MB-435): > 100 µM (inactive)
- GI50 (MDA-N): 11.2 µM (inactive)
- GI50 (MOLT-4): > 100 µM (inactive)
- GI50 (Malme-3M): > 100 µM (inactive)
- GI50 (NCI-H226): > 100 µM (inactive)
- GI50 (NCI-H23): > 100 µM (inactive)
- GI50 (NCI-H460): > 100 µM (inactive)
- GI50 (NCI-H522): > 100 µM (inactive)
- GI50 (NCI/ADR-RES): > 100 µM (inactive)
- GI50 (OVCAR-3): > 100 µM (inactive)
- GI50 (OVCAR-5): > 100 µM (inactive)
- GI50 (OVCAR-8): > 100 µM (inactive)
- GI50 (PC-3): > 100 µM (inactive)
- GI50 (RPMI-8226): > 100 µM (inactive)
- GI50 (RXF 393): > 100 µM (inactive)
- GI50 (SF-268): > 100 µM (inactive)
- GI50 (SF-295): > 100 µM (inactive)
- GI50 (SF-539): > 100 µM (inactive)
- GI50 (SK-MEL-28): > 100 µM (inactive)
- GI50 (SK-MEL-2): > 100 µM (inactive)
- GI50 (SK-MEL-5): > 100 µM (inactive)
- GI50 (SK-OV-3): > 100 µM (inactive)
- GI50 (SN12C): > 100 µM (inactive)
- GI50 (SNB-19): > 100 µM (inactive)
- GI50 (SNB-75): > 100 µM (inactive)
- GI50 (SR): 0.055 µM (active)
- GI50 (SW-620): > 100 µM (inactive)
- GI50 (T47D): > 100 µM (inactive)
- GI50 (TK-10): > 100 µM (inactive)
- GI50 (U-251): > 100 µM (inactive)
- GI50 (UACC-257): > 100 µM (inactive)
- GI50 (UACC-62): > 100 µM (inactive)
- GI50 (UO-31): > 100 µM (inactive)

SMILES: CC(=O)n1c(COS(C)(=O)=O)nc2ccccc21
- GI50 (786-0): > 100 µM (inactive)
- GI50 (A498): > 100 µM (inactive)
- GI50 (A549): > 100 µM (inactive)
- GI50 (ACHN): > 100 µM (inactive)
- GI50 (BT-549): > 100 µM (inactive)
- GI50 (CAKI-1): > 100 µM (inactive)
- GI50 (COLO 205): > 100 µM (inactive)
- GI50 (DU-145): > 100 µM (inactive)
- GI50 (EKVX): > 100 µM (inactive)
- GI50 (HCC 2998): > 100 µM (inactive)
- GI50 (HCT-116): > 100 µM (inactive)
- GI50 (HCT-15): > 100 µM
- GI50 (HOP-62): 50.2 µM (inactive)
- GI50 (HOP-92): > 100 µM (inactive)
- GI50 (HT-29): > 100 µM (inactive)
- GI50 (Hs-578T): > 100 µM (inactive)
- GI50 (IGROV-1): 66.1 µM (inactive)
- GI50 (KM12): > 100 µM (inactive)
- GI50 (LOX IMVI): > 100 µM (inactive)
- GI50 (M14): > 100 µM (inactive)
- GI50 (MCF7): 79.3 µM (inactive)
- GI50 (MDA-MB-231): > 100 µM (inactive)
- GI50 (MDA-MB-435): > 100 µM (inactive)
- GI50 (MDA-N): > 100 µM (inactive)
- GI50 (Malme-3M): > 100 µM (inactive)
- GI50 (NCI-H226): > 100 µM (inactive)
- GI50 (NCI-H23): > 100 µM (inactive)
- GI50 (NCI-H460): > 100 µM (inactive)
- GI50 (NCI-H522): > 100 µM (inactive)
- GI50 (NCI/ADR-RES): > 100 µM (inactive)
- GI50 (OVCAR-3): 58.6 µM (inactive)
- GI50 (OVCAR-4): > 100 µM (inactive)
- GI50 (OVCAR-5): > 100 µM (inactive)
- GI50 (OVCAR-8): > 100 µM (inactive)
- GI50 (PC-3): > 100 µM (inactive)
- GI50 (RXF 393): > 100 µM (inactive)
- GI50 (SF-268): > 100 µM (inactive)
- GI50 (SF-295): 54 µM (inactive)
- GI50 (SF-539): > 100 µM (inactive)
- GI50 (SK-MEL-28): > 100 µM (inactive)
- GI50 (SK-MEL-2): > 100 µM (inactive)
- GI50 (SK-MEL-5): > 100 µM (inactive)
- GI50 (SN12C): > 100 µM (inactive)
- GI50 (SNB-19): > 100 µM (inactive)
- GI50 (SNB-75): > 100 µM (inactive)
- GI50 (SW-620): > 100 µM (inactive)
- GI50 (T47D): > 100 µM (inactive)
- GI50 (TK-10): > 100 µM (inactive)
- GI50 (U-251): > 100 µM (inactive)
- GI50 (UACC-257): > 100 µM (inactive)
- GI50 (UACC-62): > 100 µM (inactive)
- GI50 (UO-31): > 100 µM (inactive)

SMILES: COc1cc(/C=C2\N=C(c3ccccc3)N(c3nc4c(OC)ccc(OC)c4s3)C2=O)cc(OC)c1OC
- GI50 (786-0): 55 µM (inactive)
- GI50 (A498): > 100 µM (inactive)
- GI50 (A549): > 100 µM (inactive)
- GI50 (ACHN): > 100 µM (inactive)
- GI50 (BT-549): > 100 µM (inactive)
- GI50 (CAKI-1): > 100 µM (inactive)
- GI50 (CCRF-CEM): 31.2 µM (inactive)
- GI50 (COLO 205): 30.4 µM (inactive)
- GI50 (DU-145): > 100 µM (inactive)
- GI50 (EKVX): > 100 µM (inactive)
- GI50 (HCC 2998): > 100 µM (inactive)
- GI50 (HCT-116): 66.8 µM (inactive)
- GI50 (HCT-15): 95.7 µM
- GI50 (HL-60): 30.4 µM (inactive)
- GI50 (HOP-62): > 100 µM (inactive)
- GI50 (HOP-92): > 100 µM (inactive)
- GI50 (HT-29): > 100 µM (inactive)
- GI50 (Hs-578T): > 100 µM (inactive)
- GI50 (IGROV-1): > 100 µM (inactive)
- GI50 (K562): 34.8 µM (inactive)
- GI50 (KM12): 61.8 µM (inactive)
- GI50 (LOX IMVI): 51.8 µM (inactive)
- GI50 (M14): > 100 µM (inactive)
- GI50 (MCF7): 34.3 µM (inactive)
- GI50 (MDA-MB-231): > 100 µM (inactive)
- GI50 (MDA-MB-435): 31.3 µM (inactive)
- GI50 (MDA-N): 35.8 µM (inactive)
- GI50 (MOLT-4): 35.2 µM (inactive)
- GI50 (Malme-3M): > 100 µM (inactive)
- GI50 (NCI-H23): > 100 µM (inactive)
- GI50 (NCI-H460): > 100 µM (inactive)
- GI50 (NCI-H522): 35.7 µM (inactive)
- GI50 (NCI/ADR-RES): > 100 µM (inactive)
- GI50 (OVCAR-3): > 100 µM (inactive)
- GI50 (OVCAR-4): > 100 µM (inactive)
- GI50 (OVCAR-5): > 100 µM (inactive)
- GI50 (OVCAR-8): 86.1 µM (inactive)
- GI50 (PC-3): 59.7 µM (inactive)
- GI50 (RPMI-8226): 43 µM (inactive)
- GI50 (RXF 393): 85.1 µM (inactive)
- GI50 (SF-268): > 100 µM (inactive)
- GI50 (SF-295): > 100 µM (inactive)
- GI50 (SK-MEL-28): > 100 µM (inactive)
- GI50 (SK-MEL-2): > 100 µM (inactive)
- GI50 (SK-MEL-5): 34.8 µM (inactive)
- GI50 (SK-OV-3): > 100 µM (inactive)
- GI50 (SN12C): > 100 µM (inactive)
- GI50 (SNB-19): > 100 µM (inactive)
- GI50 (SNB-75): > 100 µM (inactive)
- GI50 (SW-620): 49.7 µM (inactive)
- GI50 (T47D): 32.4 µM (inactive)
- GI50 (TK-10): > 100 µM (inactive)
- GI50 (U-251): 56.1 µM (inactive)
- GI50 (UACC-257): 55.6 µM (inactive)
- GI50 (UACC-62): 66.1 µM (inactive)
- GI50 (UO-31): > 100 µM (inactive)
